Values joined by “and” are separate entries in the source; they are usually repeats but may differ in a detail not shown here. Identical values can stand only once. Like-named read-outs stand apart in the source and are kept apart here.
How the values were obtained:
CYP21A2 = target: T1, CYP21A2 (Homo sapiens, UniProt P08686); assay: CYP21A2 activity assay, microsomes of transfected COS-1 cells; format: biochemical; details: cell-free; for IC50: progesterone 500 nM, 10 min
T1 construct: host or cells: COS-1 cells, transient transfection, microsomal fraction
T1 sequence (P08686 1-495): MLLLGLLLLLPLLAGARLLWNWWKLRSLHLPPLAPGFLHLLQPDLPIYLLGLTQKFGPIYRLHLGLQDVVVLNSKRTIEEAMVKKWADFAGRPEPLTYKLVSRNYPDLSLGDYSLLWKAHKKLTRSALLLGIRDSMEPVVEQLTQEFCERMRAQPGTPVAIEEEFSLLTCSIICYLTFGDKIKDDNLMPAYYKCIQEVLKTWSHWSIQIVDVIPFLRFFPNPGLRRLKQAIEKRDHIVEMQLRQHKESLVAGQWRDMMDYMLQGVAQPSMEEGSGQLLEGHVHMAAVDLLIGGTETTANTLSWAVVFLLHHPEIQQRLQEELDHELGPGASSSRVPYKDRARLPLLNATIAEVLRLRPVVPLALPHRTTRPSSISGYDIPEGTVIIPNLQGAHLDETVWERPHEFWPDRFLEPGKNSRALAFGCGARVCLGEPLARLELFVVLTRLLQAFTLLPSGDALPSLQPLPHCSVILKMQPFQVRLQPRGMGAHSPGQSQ
Description: Microsomes were prepared from COS-1 cells transiently transfected with plasmids for either CYP17A1 and POR for CYP17A1-hydroxylase assay (human CYP17A1 was available in our own plasmid collection after cloning into pcDNA3, POR was ordered from Genescript, Piscataway, USA, clone ID OHu25584C), CYP17A1, POR and cytochrome b5 for CYP17A1 17,20-lyase assay (cytochrome b5 was from Genescript, clone ID OHu09495D), POR and CYP21A2 (Genescript, CYP21A2 clone ID OHu18602D), or 3β-HSD2 (Genescript, clone ID OHu14034D). Transfection was performed using PEI and equal amounts of required plasmids with a total DNA amount of 8 µg per transfection of 3,000,000 cells. After overnight incubation, cells were washed with prewarmed PBS before adding ice-cold PBS. Cells were collected and centrifuged at 600 × g for 4 min at 4 °C, washed with ice cold PBS and centrifuged again. The pellet was resuspended in a resuspension buffer (20 mM Tris, pH 7.5, 50 mM KCl, 2 mM MgCl2, 0.25 M sucrose). Cells were disrupted with 30 S by a glass potter (2 cm^3) as described above. The homogenate was centrifuged for 20 min at 12,000 × g and 4 °C. Microsomes were pelleted by ultracentrifugation at 100,000 × g for 1 h at 4 °C. The pellet was resuspended in reaction buffer and the protein concentration determined using the Pierce Protein BCA kit as described above.
Microsomal protein (250 µg/mL) was preincubated with 1 mM NADPH and the compound of interest in reaction buffer for 10 min. The reaction was started by adding progesterone spiked with a radioactive tracer (final activity 0.025 mCi) to a final concentration of 500 nM. After 10 min of incubation at 37 °C the reaction was stopped by adding enzyme substrate and product at a final concentration of 1 mM in methanol, followed by shock-freezing in liquid nitrogen. Steroids were separated by thin layer chromatography on SIL G-25 UV254 TLC plates (Macherey-Nagel, Düren, Germany) using chloroform and ethyl acetate (1:4; v:v). Bands were excised and radiolabeled steroids analyzed by scintillation counting using […] Plus cocktail (Zinsser Analytic, Frankfurt am Main, Germany) and a β-counter (Packard, Connecticut, USA). Relative conversion was calculated based on total counts.

[1] = parameters: method as in earlier work; details: ref Zhang et al., 2018, Märtson et al., 2019, Vena et al., 2020, Risum et al., 2021, cited from earlier work
CYP11B1 = system: CYP11B1; parameters: method as in Beck et al., 2020a; details: ref Beck et al., 2020a; cited from earlier work
H295R cells = assay: Steroidogenesis assay in forskolin-stimulated H295R cells, UHPLC-MS/MS; format: cell-based, human; details: 48 h
Description: Briefly, 200,000 cells/mL between passages 5 and 10 were seeded in a 24-well plate. After 24 h, the medium was replaced by fresh medium containing reference or test compounds. […] As a time zero control, complete medium was incubated without cells. After 48 h of incubation, the cell culture supernatant was collected and stored at −20 °C until steroid quantification was performed by ultra-high liquid chromatography tandem mass spectrometry (UHPLC-MS/MS). All experiments were performed three times independently in technical duplicates.
Using water, the sample volume was adapted to 1 mL. Samples were extracted using Oasis HLB 3 cc SPE cartridge (30 mg, 30 μm particle size, Waters, Massachusetts, USA). Columns were preconditioned with 1 mL ethyl acetate and water prior to application of samples. After sample loading, columns were washed three times with 1 mL methanol (10% v/v) and water before samples were eluted applying 0.75 mL ethyl acetate twice. Eluates were evaporated to dryness and reconstituted in 50 µL methanol. Samples were applied to a reverse phase column (Waters Acquity UPLC BEH C18, 1.7 μm, 2.1 mm × 150 mm). […] Applied mobile phases consisted of water, acetonitrile and formic acid (95/5/0.1; v/v/v and 5/95/0.1; v/v/v). For data analysis, Hunter software version B.09.00 (Agilent Technologies) was used. Lower limit of detection (LOD), lower limit of quantification (LLOQ), and upper limit of quantification (ULOQ) are shown in Table 1.

11β-HSD2 = system: 11β-HSD2; parameters: method as in Beck et al., 2017, Beck et al., 2020a; details: ref Beck et al., 2017, Beck et al., 2020a; cited from earlier work
[2] = 30 nM, 10 μM forskolin, relative to forskolin control

| Compound | IC50 (CYP21A2) | serum trough concentration [1] | IC50 (CYP11B1) | lower level of the CYP11B2 product aldosterone (H295R cells; [2]) | lower levels of the CYP11B1 products cortisol and corticosterone (H295R cells; [2]) | inhibition of cortisol, corticosterone and aldosterone production (H295R cells; 300 nM and higher concentrations) | effect on the steroid profile (H295R cells; forskolin-stimulated, in words) | product/substrate ratio 17α-hydroxyprogesterone/progesterone (apparent CYP17A1 17α-hydroxylase activity) (H295R cells; forskolin-stimulated, in words) | product/substrate ratios corticosterone/11-DOC and cortisol/cortexolone (apparent CYP11B1 activity) (H295R cells; forskolin-stimulated, in words) | IC50 (11β-HSD2) | concentrations that block overall steroidogenesis (H295R cells; forskolin-stimulated) | effect on the steroid profile (H295R cells; forskolin-stimulated, in words, listed as Itraconazole) | inhibition of CYP21A2 (CYP21A2; in words) | serum trough concentration ([1]; molar value in brackets) |
| --- | --- | --- | --- | --- | --- | --- | --- | --- | --- | --- | --- | --- | --- | --- |
| CC[C@@H]([C@H](C)O)n1ncn(-c2ccc(N3CCN(c4ccc(OC[C@@H]5CO[C@@](Cn6cncn6)(c6ccc(F)cc6F)C5)cc4)CC3)cc2)c1=O [posaconazole, Posaconazole] | > 10000 nM | > 0.7 µg/mL | 60 nM | ~50% | about 40% | complete inhibition | did not affect progesterone and 11-DOC levels | indicated 17α-hydroxylase inhibition | decreased with increasing concentrations | 460 nM |  |  |  |  |
| CCC(C)n1ncn(-c2ccc(N3CCN(c4ccc(OCC5COC(Cn6cncn6)(c6ccc(Cl)cc6Cl)O5)cc4)CC3)cc2)c1=O (stereo not drawn) [itraconazole] | > 10000 nM | 0.5 to 1 µg/mL | 440 nM |  |  |  | lowered the levels of all steroids in a concentration-dependent manner |  | less potently | 140 nM | ≥ 1 µM | inhibited the production of corticosterone and aldosterone and, to a lesser extent, of cortisol in a concentration-dependent manner |  |  |
| C[C@@H](c1nc(-c2ccc(C#N)cc2)cs1)[C@](O)(Cn1cncn1)c1cc(F)ccc1F [isavuconazole] | 8100 nM and 8140 nM | 4 µg/mL | 3000 nM |  |  |  | concentration-dependent decrease in all measured steroids |  | did not indicate an inhibition of CYP11B1 and CYP11B2 | ~10000 nM | ≥ 1 µM |  | weak inhibition | ~1 µM |

Source: article PMC10458698, “Characterization of the interferences of systemic azole antifungal drugs with adrenal steroid biosynthesis using H295R cells and enzyme activity assays” (Current Research in Toxicology, 2023)
